Test results as given in patent US10464925B2, “Methods to induce targeted protein degradation through bifunctional molecules” (Dana-Farber Cancer Institute, Inc., priority 2015, dated 2019).

Key:
SW1783 = assay: cells; conditions: Homo sapiens, SW1783, 72 h
KP-N-YN = assay: cells; conditions: 72 h
SKMEL28 = assay: cells; conditions: Homo sapiens, SK-MEL-28, 72 h
MDA-MB-231 = assay: cells; conditions: Homo sapiens, MDA-MB-231, 72 h
PANC032 = assay: cells; conditions: 72 h
KARPAS = assay: cells; conditions: 72 h
CCF-STTG1 = assay: Cell viability, ATPlite 72 hours; format: cell-based; conditions: Homo sapiens
A549 = assay: cells; conditions: Homo sapiens, A549, 72 h
NCI-H460 = assay: cells; conditions: Homo sapiens, NCI-H460, 72 h
SBC-5 = assay: cells; conditions: Homo sapiens, SBC-5, 72 h
Cl-1 = assay: cells; conditions: 72 h
SUM159R = assay: cells; conditions: 72 h
MDA-MB-436 = assay: cells; conditions: Homo sapiens, MDA-MB-436, 72 h
SUM149R = assay: cells; conditions: 72 h
BRDT = BRDT (Homo sapiens, UniProt Q58F21); assay: BRDT IC50 (Table 4); format: binding; conditions: read-out: IC50 (nM) BRDT
SUM149 = assay: cells; conditions: SUM149, 72 h
MKN45 = assay: cells; conditions: Homo sapiens, MKN-45, 72 h
DND41 = assay: Cell viability, ATPlite 48 hours, DND41; format: cell-based; conditions: DND41 cells
Protocol: (§1) ATP content was measured as a surrogate for cellular viability using ATPlite (Promega).

HCC1315 = assay: cells; conditions: 72 h
SUM185 = assay: cells; conditions: 72 h
ASPC1 = assay: cells; conditions: Homo sapiens, ASPC1, 72 h
MC116 = assay: cells; conditions: Homo sapiens, MC116, 72 h
LCLC-103H = assay: cells; conditions: Homo sapiens, 72 h
ZR-75-1_YMB-1 = assay: cells; conditions: 72 h
MOLT4 = assay: Cell viability, ATPlite 48 hours, MOLT4; format: cell-based; conditions: Homo sapiens, MOLT-4; MOLT4 cells
Protocol: as §1

KP2 = assay: cells; conditions: 72 h
Calu6 = assay: Cell viability, ATPlite 72 hours; format: cell-based; conditions: Homo sapiens, Calu-6
Protocol: Various cell lines were seeded into 384-well tissue culture-treated plates at a density of 2,000 cells per well in a volume of 50 μL/well. […] After 72 hours of incubation, cells were analyzed for cell viability using the ATPlite (PerkinElmer) Luminescence Assay Kit per the manufacturer's instructions, using ATP content as a surrogate for viable cell number. Luminescence was read on an EnVision 2104 Multilabel Plate Reader (PerkinElmer).

NMC-G1 = assay: cells; conditions: 72 h
NCI-H838 = assay: cells; conditions: Homo sapiens, NCI-H838, 72 h
T47D = assay: cells; conditions: Homo sapiens, 72 h
CUTL1 = assay: Cell viability, ATPlite 48 hours, CUTLL1; format: cell-based; conditions: CUTL1 cells
Protocol: as §1

SMILES: Cc1sc2c(c1C)C(c1ccc(Cl)cc1)=N[C@@H](CC(=O)NCCCCCCCCNC(=O)COc1cccc3c1C(=O)N(C1CCC(=O)NC1=O)C3=O)c1nnc(C)n1-2 (stereo partly drawn) [dBET6]
- Emax (SW1783; read-out: Emax (%) SW1783): 22.2%
- IC50 (SW1783; read-out: IC50 (nM) SW1783): 38.2 nM
- Emax (KP-N-YN; read-out: Emax (%) KP-N-YN): 42.8%
- IC50 (KP-N-YN; read-out: IC50 (nM) KP-N-YN): 9.41 nM
- Emax (SKMEL28; read-out: Emax (%) SKMEL28): 59%
- IC50 (SKMEL28; read-out: IC50 (nM) SKMEL28): 474 nM
- Emax (MDA-MB-231; read-out: Emax (%) MDA-MB-231): 24.2%
- IC50 (MDA-MB-231; read-out: IC50 (nM) MDA-MB-231): 146 nM
- Emax (PANC032; read-out: Emax (%) PANC032): 53.2%
- IC50 (PANC032; read-out: IC50 (nM) PANC032): 1450 nM
- Emax (KARPAS; read-out: Emax (%) KARPAS): 21%
- IC50 (KARPAS; read-out: IC50 (nM) KARPAS): 2.18 nM
- Emax (CCF-STTG1): 45.8%
- Emax (A549; read-out: Emax (%) A549): 30.9%
- IC50 (A549; read-out: IC50 (nM) A549): 1900 nM
- Emax (NCI-H460; read-out: Emax (%) NCI-H460): 34.4%
- IC50 (NCI-H460; read-out: IC50 (nM) NCI-H460): 438 nM
- Emax (SBC-5; read-out: Emax (%) SBC-5): 21.6%
- IC50 (SBC-5; read-out: IC50 (nM) SBC-5): 841 nM
- Emax (Cl-1; read-out: Emax (%) Cl-1): 10.7%
- IC50 (Cl-1; read-out: IC50 (nM) Cl-1): 23.3 nM
- Emax (SUM159R; read-out: Emax (%) SUM159R): 36%
- IC50 (SUM159R; read-out: IC50 (nM) SUM159R): 92.4 nM
- Emax (MDA-MB-436; read-out: Emax (%) MDA-MB-436): 29.5%
- IC50 (MDA-MB-436; read-out: IC50 (nM) MDA-MB-436): 39.6 nM
- Emax (SUM149R; read-out: Emax (%) SUM149R): 10.6%
- IC50 (SUM149R; read-out: IC50 (nM) SUM149R): 18.5 nM
- IC50 (BRDT): 56 nM
- Emax (SUM149; read-out: Emax (%) SUM149): 27.9%
- IC50 (SUM149; read-out: IC50 (nM) SUM149): 131 nM
- Emax (MKN45; read-out: Emax (%) MKN45): 19.4%
- IC50 (MKN45; read-out: IC50 (nM) MKN45): 41.1 nM
- IC50 (DND41): 34.4 nM
- Emax (HCC1315; read-out: Emax (%) HCC1315): 41.2%
- IC50 (HCC1315; read-out: IC50 (nM) HCC1315): 1060 nM
- Emax (SUM185; read-out: Emax (%) SUM185): 22.9%
- IC50 (SUM185; read-out: IC50 (nM) SUM185): 1.44 nM
- Emax (ASPC1; read-out: Emax (%) ASPC1): 50.4%
- IC50 (ASPC1; read-out: IC50 (nM) ASPC1): 1460 nM
- Emax (MC116; read-out: Emax (%) MC116): 0.32%
- IC50 (MC116; read-out: IC50 (nM) MC116): 20.5 nM
- Emax (LCLC-103H; read-out: Emax (%) LCLC-103H): 24%
- IC50 (LCLC-103H; read-out: IC50 (nM) LCLC-103H): 84.2 nM
- Emax (ZR-75-1_YMB-1; read-out: Emax (%) ZR-75-1_YMB-1): 21.6%
- IC50 (ZR-75-1_YMB-1; read-out: IC50 (nM) ZR-75-1_YMB-1): 23.5 nM
- IC50 (MOLT4): 65.3 nM
- Emax (KP2; read-out: Emax (%) KP2): 20.7%
- IC50 (KP2; read-out: IC50 (nM) KP2): 513 nM
- Emax (Calu6): 51.7%
- IC50 (Calu6): 233 nM
- Emax (NMC-G1; read-out: Emax (%) NMC-G1): 36.6%
- IC50 (NMC-G1; read-out: IC50 (nM) NMC-G1): 70 nM
- Emax (NCI-H838; read-out: Emax (%) NCI-H838): 32.2%
- IC50 (NCI-H838; read-out: IC50 (nM) NCI-H838): 52 nM
- Emax (T47D; read-out: Emax (%) T47D): 49.4%
- IC50 (T47D; read-out: IC50 (nM) T47D): 7.46 nM
- IC50 (CUTL1): 70.8 nM
